Source: US11708338B2, “Substituted phenyl sulfonyl phenyl triazole thiones and uses thereof” (Neuropore Therapies, Inc., priority 2017, dated 2023)

Columns and labels:
Type in all cases: in vivo, mouse
[1] = tested on: microtubule-associated protein 1A/1B-light chain 3 (LC3); assay: LC3 immunolabeling (IHC) in brain, 1 month administration study; details: L61 ASYN transgenic mice, 1, 5 or 10 mg/kg per day i.p.
Description: (§1) Alpha-synuclein (ASYN) is a neuronal protein whose dysregulation has been implicated in the pathogenesis of PD. The effects of Compound 1 on alpha-synuclein aggregation were assessed in both L61 ASYN transgenic and non-transgenic mice in a 1 month administration study. L61 ASYN transgenic mice (36 total mice, n=8-11 mice per treatment group) were injected (i.p.) with 1, 5, or 10 mg/kg of Compound 1 or a vehicle control (5% DMSO+20% Cremphor EL+0.9% normal saline) per day for 1 month. Non-transgenic mice (18 total mice, n=8-11 mice per treatment group) were used as a control and were injected daily (i.p.) with 10 mg/kg of Compound 1 or a vehicle control (5% DMSO+20% Cremphor EL+0.9% normal saline) per day for 1 month. At the end of one month, the mice were sacrificed, and immunohistochemical (IHC) detection of total alpha-synuclein deposits, insoluble alpha-synuclein deposits (PK+resistant), microtubule-associated protein 1A/1B-light chain 3 (LC3), and monomeric alpha-synuclein levels were assessed in the harvested brain tissues.

L61 ASYN transgenic mice = assay: Grip strength evaluation (motor performance), 3 month administration study; details: 5 mg/kg and 10 mg/kg i.p. daily, after 70 days of treatment
Description: The effects of Compound 1 on the motor performance deficits (grip strength) and a marker of neuroinflammation (Translocator Protein (18 kDa)) were assessed in both L61 ASYN transgenic and non-transgenic mice in a 3 month administration study.
Compound 1 was injected into L61 ASYN transgenic mice and non-transgenic control mice (i.p., once daily) at doses of 5 and 10 mg/kg for 3 months (79 total mice, n=14-17 mice per treatment group). The vehicle control consisted of a solution containing 5% DMSO+20% Cremphor EL+0.9% normal saline. The baseline grip strength of mice was evaluated prior to starting treatments for the 3 month study, and then re-evaluated following 70 days of treatment with vehicle or Compound 1 (5 or 10 mg/kg, i.p. daily).
At baseline, there was a statistically significant grip strength deficit in transgenic mice compared to non-transgenic mice. Treatment with Compound 1 (5 & 10 mg/kg) improved L61 ASYN transgenic grip strength deficits.

[2] = tested on: total alpha-synuclein (ASYN); assay: IHC quantification of total alpha-synuclein deposits in brain, 1 month administration study; details: for reduction of total alpha-synuclein level in cortex as compared to vehicle control: L61 ASYN transgenic mice, FIG. 7A
Description: Multiple in vivo administration studies of Compound 1 were carried out in the Line 61 (L61) mThy1-alpha-synuclein transgenic mouse model of Parkinson's disease (PD). The mThy1-alpha-synuclein transgenic mouse model overexpresses wild-type human ASYN under the Thy-1 promoter studies (commonly referred to as Line 61 transgenic mice; Rockenstein et al., 2002). This transgenic mouse develops extensive accumulation of alpha-synuclein (ASYN) in areas relevant to PD (Rockenstein et al., 2002; Chesselet et al., 2012; Games et al., 2013), neurodegeneration including dopaminergic neurodegeneration, reduced dopamine (DA) and TH loss in the striatum (Masliah et al., 2000; Lam et al., 2011), and motor deficits (Fleming et al., 2004). Male transgenic and non-transgenic littermates (3-3.5 mo) were used for all in vivo studies presented here.
as §1
The quantification and IHC staining of total alpha-synuclein were performed using known techniques (Rockenstein et al., J Neurosci Res. 2002, 68(5):568-78; Tanji et al., Acta Neuropathol. 2010, 120, 145-154; Nuber et al., Brain. 2013, February; 136(Pt 2):412-32).

amyloid beta = assay: Amyloid beta (6E10) immunostaining in brain of L41 APP transgenic mice; details: 5 mg/kg daily i.p.
Description: As described earlier, Line 41 transgenic mice express high levels of the mutant hAPP751 and develop mature plaques in the cortex, hippocampus, thalamus and olfactory region of mouse brain. The effects of Compound 1 on Amyloid beta plaque formation were assessed in both L41 APP transgenic and non-transgenic mice in a 1 month administration study. After 30 days, the mice were sacrificed, and immunofluorescence (IF) detection of amyloid beta were assessed in the harvested brain tissues.
The harvested brain tissues were drop fixed using 4% PFA and sectioned on a vibratome, and representative sections containing the neuropil of cortex, hippocampus and striatum were assessed for amyloid beta with standard IHC staining.
On approximately day 30, all subjects were euthanized within 2 hours of the last treatment and brain and other samples were collected. Brains were removed and divided sagitally. […]
Prepared slides were imaged at 40× using a high-resolution Hamamatsu Nanozoomer™ scanner located in the Microscopy Core in the UCSD Department of Neurosciences. Digital images were then transferred to Neuropore and analyzed using the Halo® imaging software package (Indica Labs, Corrales, N. Mex.). […] Images were evaluated for specimen and imaging problems and any issues were noted prior to unblinding of samples and statistical analyses.

[3] = L61 ASYN transgenic mice, 1, 5 or 10 mg/kg per day i.p.

Question: What does the source list for `O=S(=O)(c1ccc(-n2cn[nH]c2=S)cc1)c1ccc(Cl)c(C(F)(F)F)c1` [Compound 1, 4-(4-((4-chloro-3-(trifluoromethyl)phenyl)sulfonyl)phenyl)-2,4-dihydro-3H-1,2,4-triazole-3-thione]?
Answer: levels of LC3 immunolabeling in cortex [1]: increased; levels of LC3 immunolabeling in hippocampus (increase) [1]: not; levels of LC3 immunolabeling in striatum [1]: increased; grip strength vs vehicle-treated transgenic mice (L61 ASYN transgenic mice): higher grip strengths than vehicle-treated transgenic mice in a statistically significant manner; reduction of total alpha-synuclein level in cortex as compared to vehicle control ([2]; 1 mg/kg per day i.p.): 13%; reduction of total alpha-synuclein level in cortex as compared to vehicle control ([2]; 5 mg/kg per day i.p.): 32%; reduction of total alpha-synuclein level in cortex as compared to vehicle control ([2]; 10 mg/kg per day i.p.): 38%; total ASYN in the neuropil of cortex vs vehicle control [2, 3]: reduced; total ASYN in the neuropil of hippocampus vs vehicle control [2, 3]: reduced; total ASYN in the neuropil of striatum vs vehicle control [2, 3]: reduced; amyloid beta level vs vehicle-treated Line 41 mice, quantification (amyloid beta): reduces the amyloid beta level in a statistically significant manner
